In PubChem BioAssay AID252 (DTP/NCI, 2004):
Values joined by “and” are separate entries in the source; they are usually repeats but may differ in a detail not shown here. Equal entries are not always repeated. Inconclusive results and toxic doses are left out.

Tested on: BDF1 mice, intracerebral L1210 leukemia, survival T/C
Assay: NCI In Vivo Anticancer Drug Screen. Data for tumor model L1210 Leukemia (intracerebral) in B6D2F1 (BDF1) mice
Details: higher = longer survival
In short: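 Mice carrying transplanted tumour were dosed with compound; survival was recorded and expressed as treated-group value (T) divided by vehicle-control value (C).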

[1] = endpoint: mean survival time, dose: 8.0 mg/kg/injection, schedule: Q01DX001 (ip), vehicle: other

CC(=O)Nc1ccc2nc3ccc(NC(C)=O)cc3[n+](-c3ccccc3)c2c1
T/C (endpoint: mean survival time, dose: 37.5 mg/kg/injection, schedule: Q01DX Z (ip), vehicle: carboxymethylcellulose (CMC)): 104 % of control
T/C (endpoint: mean survival time, dose: 50.0 mg/kg/injection, schedule: Q01DX Z (ip), vehicle: carboxymethylcellulose (CMC)): 98 % of control
T/C (endpoint: mean survival time, dose: 75.0 mg/kg/injection, schedule: Q01DX Z (ip), vehicle: carboxymethylcellulose (CMC)): 103 % of control
T/C (endpoint: mean survival time, dose: 100.0 mg/kg/injection, schedule: Q01DX Z (ip), vehicle: carboxymethylcellulose (CMC)): 101 % of control
T/C (endpoint: mean survival time, dose: 125.0 mg/kg/injection, schedule: Q01DX Z (ip), vehicle: carboxymethylcellulose (CMC)): 107 % of control
T/C (endpoint: mean survival time, dose: 250.0 mg/kg/injection, schedule: Q01DX Z (ip), vehicle: carboxymethylcellulose (CMC)): 97 % of control

C[C@H](N)C(=O)N[C@@H]1[C@H]2C(=C(O)C[C@@H](O)[C@@H]2O)C(=O)O[C@@H]1C
T/C (endpoint: mean survival time, dose: 125.0 mg/kg/injection, schedule: Q01DX Z (ip), vehicle: saline): 97 % of control
T/C (endpoint: mean survival time, dose: 211.0 mg/kg/injection, schedule: Q01DX015 (ip), vehicle: saline): 103 % of control
T/C (endpoint: mean survival time, dose: 250.0 mg/kg/injection, schedule: Q01DX Z (ip), vehicle: saline): 107 % of control
T/C (endpoint: mean survival time, dose: 320.0 mg/kg/injection, schedule: Q01DX015 (ip), vehicle: saline): 103 % of control
T/C (endpoint: mean survival time, dose: 480.0 mg/kg/injection, schedule: Q01DX015 (ip), vehicle: saline): 102 % of control
T/C (endpoint: mean survival time, dose: 500.0 mg/kg/injection, schedule: Q01DX Z (ip), vehicle: saline): 109 % of control
T/C (endpoint: mean survival time, dose: 720.0 mg/kg/injection, schedule: Q01DX015 (ip), vehicle: saline): 103 % of control
T/C (endpoint: mean survival time, dose: 750.0 mg/kg/injection, schedule: Q01DX Z (ip), vehicle: saline): 107 % of control
T/C (endpoint: mean survival time, dose: 1000.0 mg/kg/injection, schedule: Q01DX Z (ip), vehicle: saline): 106 % of control
T/C (endpoint: mean survival time, dose: 1080.0 mg/kg/injection, schedule: Q01DX015 (ip), vehicle: saline): 105 % of control
T/C (endpoint: mean survival time, dose: 1500.0 mg/kg/injection, schedule: Q01DX Z (ip), vehicle: saline): 106 % of control
T/C (endpoint: mean survival time, dose: 2024.0 mg/kg/injection, schedule: Q01DX001 (ip), vehicle: saline): 109 % of control
T/C (endpoint: mean survival time, dose: 3082.0 mg/kg/injection, schedule: Q01DX001 (ip), vehicle: saline): 105 % of control

CN(C)C(=O)c1ccc(NC(=O)N(CCCl)N=O)cc1
T/C [1]: 110 % of control
T/C (endpoint: mean survival time, dose: 24.0 mg/kg/injection, schedule: Q01DX001 (ip), vehicle: other): 121 % of control

O=NN(CCF)C(=O)Nc1ccccc1
T/C [1]: 120 % of control

c1cc2n(n1)CCN2
T/C (endpoint: median survival time, dose: 50.0 mg/kg/injection, schedule: Q01DX009 (ip), vehicle: water): 94 % of control
T/C (endpoint: median survival time, dose: 100.0 mg/kg/injection, schedule: Q01DX009 (ip), vehicle: water): 106 % of control
T/C (endpoint: median survival time, dose: 100.0 mg/kg/injection, schedule: Q04DX003 (ip), vehicle: water): 102 % of control
T/C (endpoint: median survival time, dose: 200.0 mg/kg/injection, schedule: Q01DX009 (ip), vehicle: water): 107 % of control
T/C (endpoint: median survival time, dose: 200.0 mg/kg/injection, schedule: Q04DX003 (ip), vehicle: water): 114 % of control
T/C (endpoint: median survival time, dose: 300.0 mg/kg/injection, schedule: Q04DX003 (ip), vehicle: water): 116 % of control

CN(N=O)C(=O)N[C@@H](C=O)[C@@H](O)[C@H](O)[C@H](O)CO
T/C (endpoint: mean survival time, dose: 15.0 mg/kg/injection, schedule: Q01DX009 (ip), vehicle: saline): 105 % of control
T/C (endpoint: mean survival time, dose: 22.0 mg/kg/injection, schedule: Q01DX009 (ip), vehicle: other): 98 % of control
T/C (endpoint: mean survival time, dose: 30.0 mg/kg/injection, schedule: Q01DX005 (ip), vehicle: saline): 105 % of control
T/C (endpoint: mean survival time, dose: 30.0 mg/kg/injection, schedule: Q01DX009 (ip), vehicle: saline): 108 % of control
T/C (endpoint: mean survival time, dose: 33.0 mg/kg/injection, schedule: Q01DX009 (ip), vehicle: other): 100 % of control
T/C (endpoint: mean survival time, dose: 50.0 mg/kg/injection, schedule: Q01DX009 (ip), vehicle: other): 95 % of control
T/C (endpoint: mean survival time, dose: 60.0 mg/kg/injection, schedule: Q01DX005 (ip), vehicle: saline): 101 % of control
T/C (endpoint: mean survival time, dose: 60.0 mg/kg/injection, schedule: Q01DX009 (ip), vehicle: saline): 109 % of control
T/C (endpoint: mean survival time, dose: 75.0 mg/kg/injection, schedule: Q01DX009 (ip), vehicle: other): 94 % of control
T/C (endpoint: mean survival time, dose: 113.0 mg/kg/injection, schedule: Q01DX009 (ip), vehicle: other): 93 % of control
T/C (endpoint: mean survival time, dose: 120.0 mg/kg/injection, schedule: Q01DX005 (ip), vehicle: saline): 107 % of control
T/C (endpoint: mean survival time, dose: 120.0 mg/kg/injection, schedule: Q01DX009 (ip), vehicle: saline): 113 % of control
T/C (endpoint: mean survival time, dose: 240.0 mg/kg/injection, schedule: Q01DX005 (ip), vehicle: saline): 105 % of control

CS(=O)(=O)OCC(O)C(O)COS(C)(=O)=O (stereo unspecified)
T/C (endpoint: mean survival time, dose: 440.0 mg/kg/injection, schedule: Q01DX001 (ip), vehicle: carboxymethylcellulose (CMC)): 92 % of control and 97 % of control
T/C (endpoint: mean survival time, dose: 670.0 mg/kg/injection, schedule: Q01DX001 (ip), vehicle: carboxymethylcellulose (CMC)): 101 % of control and 100 % of control
T/C (endpoint: mean survival time, dose: 1000.0 mg/kg/injection, schedule: Q01DX001 (ip), vehicle: carboxymethylcellulose (CMC)): 102 % of control and 100 % of control

CS(=O)(=O)Nc1ccc(Nc2c3ccccc3nc3ccccc23)cc1
T/C (endpoint: mean survival time, dose: 10.0 mg/kg/injection, schedule: Q01DX009 (ip), vehicle: saline): 104 % of control
T/C (endpoint: mean survival time, dose: 10.0 mg/kg/injection, schedule: Q01DX009 (sc), vehicle: saline): 92 % of control
T/C (endpoint: mean survival time, dose: 20.0 mg/kg/injection, schedule: Q01DX009 (ip), vehicle: saline): 101 % of control
T/C (endpoint: mean survival time, dose: 20.0 mg/kg/injection, schedule: Q01DX009 (sc), vehicle: saline): 96 % of control
T/C (endpoint: mean survival time, dose: 40.0 mg/kg/injection, schedule: Q01DX009 (ip), vehicle: saline): 96 % of control
T/C (endpoint: mean survival time, dose: 40.0 mg/kg/injection, schedule: Q01DX009 (sc), vehicle: saline): 90 % of control
T/C (endpoint: mean survival time, dose: 80.0 mg/kg/injection, schedule: Q01DX009 (sc), vehicle: saline): 96 % of control

CCCC(=O)NC1=C(N2CC2)C(=O)C(NC(=O)CCC)=C(N2CC2)C1=O
T/C (endpoint: mean survival time, dose: 1.0 mg/kg/injection, schedule: Q01DX009 (ip), vehicle: saline): 105 % of control
T/C (endpoint: mean survival time, dose: 4.0 mg/kg/injection, schedule: Q01DX009 (ip), vehicle: saline): 152 % of control
T/C (endpoint: mean survival time, dose: 8.0 mg/kg/injection, schedule: Q01DX009 (ip), vehicle: saline): 89 % of control

CN(Cc1cnc2nc(N)nc(N)c2n1)c1c(Cl)cc(C(=O)NC(CCC(=O)O)C(=O)O)cc1Cl (stereo unspecified)
T/C (endpoint: mean survival time, dose: 285.0 mg/kg/injection, schedule: Q01DX001 (ip), vehicle: carboxymethylcellulose (CMC)): 91 % of control
T/C (endpoint: mean survival time, dose: 434.0 mg/kg/injection, schedule: Q01DX001 (ip), vehicle: carboxymethylcellulose (CMC)): 90 % of control
T/C (endpoint: mean survival time, dose: 647.0 mg/kg/injection, schedule: Q01DX001 (ip), vehicle: carboxymethylcellulose (CMC)): 95 % of control

O=NN(CCCl)C(=O)Nc1ccccc1Cl
T/C (endpoint: mean survival time, dose: 22.0 mg/kg/injection, schedule: Q01DX001 (ip), vehicle: carboxymethylcellulose (CMC)): 100 % of control
T/C (endpoint: mean survival time, dose: 33.0 mg/kg/injection, schedule: Q01DX001 (ip), vehicle: carboxymethylcellulose (CMC)): 89 % of control
T/C (endpoint: mean survival time, dose: 50.0 mg/kg/injection, schedule: Q01DX001 (ip), vehicle: carboxymethylcellulose (CMC)): 100 % of control

CN(C)NCCC#N
T/C (endpoint: mean survival time, dose: 27.0 mg/kg/injection, schedule: Q01DX Z (ip), vehicle: saline): 105 % of control
T/C (endpoint: mean survival time, dose: 40.0 mg/kg/injection, schedule: Q01DX Z (ip), vehicle: saline): 110 % of control
T/C (endpoint: mean survival time, dose: 60.0 mg/kg/injection, schedule: Q01DX Z (ip), vehicle: saline): 108 % of control
T/C (endpoint: mean survival time, dose: 90.0 mg/kg/injection, schedule: Q01DX Z (ip), vehicle: saline): 109 % of control

O=NN(CCCl)C(=O)NC1C2CC3CC(C2)CC1C3 (stereo unspecified)
T/C (endpoint: mean survival time, dose: 22.0 mg/kg/injection, schedule: Q01DX001 (ip), vehicle: other): 109 % of control and 119 % of control
T/C (endpoint: mean survival time, dose: 45.0 mg/kg/injection, schedule: Q01DX001 (ip), vehicle: other): 175 % of control and 231 % of control
T/C (endpoint: mean survival time, dose: 91.0 mg/kg/injection, schedule: Q01DX001 (ip), vehicle: other): 340 % of control and 376 % of control
T/C (endpoint: mean survival time, dose: 144.0 mg/kg/injection, schedule: Q01DX001 (ip), vehicle: other): 153 % of control
T/C (endpoint: mean survival time, dose: 181.0 mg/kg/injection, schedule: Q01DX001 (ip), vehicle: other): 250 % of control and 335 % of control
T/C (endpoint: mean survival time, dose: 215.0 mg/kg/injection, schedule: Q01DX001 (ip), vehicle: other): 238 % of control
T/C (endpoint: mean survival time, dose: 322.0 mg/kg/injection, schedule: Q01DX001 (ip), vehicle: other): 217 % of control
T/C (endpoint: mean survival time, dose: 362.0 mg/kg/injection, schedule: Q01DX001 (ip), vehicle: other): 103 % of control

O=NN(CCCl)C(=O)Nc1ccc(F)cc1
T/C (endpoint: mean survival time, dose: 11.0 mg/kg/injection, schedule: Q01DX001 (ip), vehicle: carboxymethylcellulose (CMC)): 109 % of control
T/C (endpoint: mean survival time, dose: 16.6 mg/kg/injection, schedule: Q01DX001 (ip), vehicle: carboxymethylcellulose (CMC)): 112 % of control
T/C (endpoint: mean survival time, dose: 25.0 mg/kg/injection, schedule: Q01DX001 (ip), vehicle: carboxymethylcellulose (CMC)): 109 % of control
T/C (endpoint: mean survival time, dose: 37.5 mg/kg/injection, schedule: Q01DX001 (ip), vehicle: carboxymethylcellulose (CMC)): 108 % of control
